# Experimental data taken from patent US20020143062A1, “Method to incorporate N-(4-hydroxyphenyl) retinamide in liposomes” (Board of Regents, The University of Texas System, priority 2000, published 2002).
# Counter-ions that a name gives are not always drawn. Like-named read-outs stand apart in the source and are kept apart here. Starred links: 1 amine or outer side, 2 acyl side, 3 side chain; linkers in the order of their positions; H or OH if unused. Positions of bridges follow the written chain, without caps; N, C: chain ends. Non-standard residues stand in square brackets, D forms with d. Residues, ends and D or L forms follow the SMILES beside them. Chains are numbered I, II in the order given. Actinocin(9to1) = Cc1c2oc3c(C)ccc(C(=O)[*:1])c3nc-2c(C(=O)[*:2])c(N)c1=O; NMeV = CN[C@H](C(=O)O)C(C)C; Sar = CNCC(=O)O
# Experiments:
# MCF-7/WT = assay: Cellular proliferation assay, IC50 of retinoids with/without cyclosporin A; format: cell-based
# [1] = test system: ER-negative MDA-MB-231 cells; assay: NO production, nitrite (Table 8); format: cell-based; conditions: cyclosporin A 4 μg/ml; CD437 2 μM; ATRA 1 μM; alone or combined as labelled; 3 days
# Text: (§1) Liposomal 4-HPR in combination with cyclosporin A, increased iNOS production of NO in breast cancer cells (Table 3-5). […] Furthermore, an increase in the production of NO in these cells was not indicated with other retinoids such as CD437 and ATRA.
# ER-positive MCF-7 cells [2] = assay: NO production, nitrite assay (Tables 5 and 7); format: cell-based; conditions: for increase of iNOS production of NO in the presence of cyclosporin A: both ER positive and ER negative breast cancer cells (Tables 7, 8)
# Text: (§2) Nitric oxide (NO), an important biological second messenger, is known to induce growth inhibition and apoptosis in cells. Nitric oxide (NO) is biosynthesized by isoenzymes called nitric oxide synthases. One such isoenzyme, inducible NOS (iNOS), is present only after cytokine induction, such as interferon-γ (IFN-γ). […] Here, the ability of liposomal 4-HPR and IFN-γ to induce NO production and growth inhibition in breast cancer positive (Table 5) and breast cancer negative (Table 6) cells is examined by nitrite assays and growth inhibition assays, as known to the skilled artisan.
# (§3) It is also known to those skilled in the art that nitric oxide (NO) is a biologic mediator derived from the amino acid L-arginine. A family of enzymes, known as nitric oxide synthase (NOS), act upon L-arginine to oxidize one of the guanidino nitrogens to nitric oxide while citrulline is formed from the remainder of the L-arginine molecule.
# as §1
# [3] = cited from earlier work
# [4] = cited from earlier work; remark: listed apart in the source
# MCF-7/ADR = assay: Cellular proliferation assay, IC50 of retinoids with/without cyclosporin A; format: cell-based
# [5] = cited from earlier work; remark: listed apart in the source
# ER-positive MCF-7 cells [6] = assay: NO production, nitrite assay (Table 6); format: cell-based; conditions: alone or with 4HPR 1 μM as labelled, 5 days
# Text: as §2, §3
# ER-positive MCF-7 cells [7] = assay: Growth inhibition, cell count (Table 5); format: cell-based; conditions: alone or with 4HPR 1 μM as labelled, 5 days
# Text: as §2
# ER-positive MCF-7 cells [8] = assay: Growth inhibition, cell count (Table 6); format: cell-based; conditions: alone or with 4HPR 1 μM as labelled, 5 days
# Text: Nitric oxide (NO), an important biological second messenger, is known to induce growth inhibition and apoptosis in cells. Nitric oxide (NO) is biosynthesized by isoenzymes called nitric oxide synthases. […]
# [9] = cyclosporin A 4 μg/ml, CD437 2 μM, ATRA 1 μM, alone or combined as labelled, 3 days
# [10] = without cyclosporin A, read-out: IC50 Without CsA
# [11] = single oral doses of about 0.6 mg/kg to about […]
compound,measurement,setting,value
"CC1=C(/C=C/C(C)=C/C=C/C(C)=C/C(=O)O)C(C)(C)CCC1 [ATRA, all-trans-retinoic acid]",IC50,"MCF-7/WT; Homo sapiens, MCF7, cotreatment with CsA, concentration not marked, read-out: IC50 With CsA",287 nM
same,IC50,"MCF-7/WT; Homo sapiens, MCF7, without cyclosporin A, read-out: IC50 Without CsA",288 nM
same,Nitrite (NO production),[1],7.1 μM Nitrite /1 × 10^6 cells
same,increase of iNOS production of NO in the presence of cyclosporin A,ER-positive MCF-7 cells [2],not indicated
same,Nitrite (NO production),ER-positive MCF-7 cells [2]; [9],15.1 μM Nitrite /1 × 10^6 cells
"Cc1c2oc3c(C)ccc(C(=O)N[C@@H]4C(=O)N[C@H](C(C)C)C(=O)N5CCC[C@H]5C(=O)N(C)CC(=O)N(C)[C@@H](C(C)C)C(=O)O[C@@H]4C)c3nc-2c(C(=O)N[C@@H]2C(=O)N[C@H](C(C)C)C(=O)N3CCC[C@H]3C(=O)N(C)CC(=O)N(C)[C@@H](C(C)C)C(=O)O[C@@H]2C)c(N)c1=O [Actinomycin D] (I: T[dV]P[Sar][NMeV] / II: T[dV]P[Sar][NMeV]; ester I:1-I:C, II:1-II:C; linker I:N-II:N via Actinocin(9to1))",dose excreted intact into the bile,[3]; in vivo,Half of the dose
same,dose excreted intact into the urine,[3]; in vivo,10%
same,half-life,[3]; in vivo,about 36 hours
same,passage of the blood-brain barrier,[3]; in vivo,does not pass the blood-brain barrier
"CS(=O)(=O)OCCCCOS(C)(=O)=O [Busulfan, 1,4-butanediol dimethanesulfonate]",adults obtaining hematologic remission with regression or stabilization of organomegaly,[4]; previously untreated chronic myelogenous leukemia,Approximately 90%
O=C(O)c1ccc2cc(-c3ccc(O)c(C45CC6CC(CC(C6)C4)C5)c3)ccc2c1 [CD437],IC50,"MCF-7/WT; cotreatment with CsA, concentration not marked, read-out: IC50 With CsA",358 nM
same,IC50,MCF-7/WT; [10],287 nM
same,Nitrite (NO production),[1],59.3 μM Nitrite /1 × 10^6 cells
same,IC50,"MCF-7/ADR; cotreatment with CsA 2 μg/ml, read-out: IC50 With CsA",197000 nM
same,IC50,"MCF-7/ADR; cotreatment with CsA 4 μg/ml, read-out: IC50 With CsA",1190 nM
same,IC50,MCF-7/ADR; [10],1580 nM
same,increase of iNOS production of NO in the presence of cyclosporin A,ER-positive MCF-7 cells [2],not indicated
same,Nitrite (NO production),ER-positive MCF-7 cells [2]; [9],71.8 μM Nitrite /1 × 10^6 cells
"O=C(O)CCCc1ccc(N(CCCl)CCCl)cc1 [Chlorambucil, 4-[bis(2-chlorethyl)amino] benzenebutanoic acid]",oral / gastrointestinal absorption,[3]; in vivo,rapidly and completely absorbed
same,terminal half-life of the parent drug,[3]; [11],about 1.5 hours
same,time to peak plasma chlorambucil levels,[3]; [11],within one hour
N.N.[Cl][Pt][Cl] [Cisplatin],oral / gastrointestinal absorption,[3]; in vivo,not absorbed orally
"COc1cccc2c1C(=O)c1c(O)c3c(c(O)c1C2=O)C[C@@](O)(C(C)=O)C[C@@H]3O[C@H]1C[C@H](N)[C@H](O)[C@H](C)O1 [Daunorubicin, 5,12-Naphthacenedione, (8S-cis)-8-acetyl-10-[(3-amino-2,3,6-trideoxy-a-L-lyxo-hexanopyranosyl)oxy]-7,8,9,10-tetrahydro-6,8,11-trihydroxy-10-methoxy-, hydrochloride]",oral / gastrointestinal absorption,[3]; in vivo,Oral absorption is poor
same,elimination half-life,[3]; in vivo,about 19 hours
same,secreted into the bile,[3]; in vivo,about 40%
"COc1cccc2c1C(=O)c1c(O)c3c(c(O)c1C2=O)C[C@@](O)(C(=O)CO)C[C@@H]3O[C@H]1C[C@H](N)[C@H](O)[C@H](C)O1 [Doxorubicin, 5,12-Naphthacenedione, (8s-cis)-10-[(3-amino-2,3,6-trideoxy-a-L-lyxo-hexopyranosyl)oxy]-7,8,9,1 0-tetrahydro-6,8,11-trihydroxy-8-(hydroxyacetyl)-1-methoxy-hydrochloride]",oral / gastrointestinal absorption,[3]; in vivo,absorbed poorly
same,elimination half-life,[3]; in vivo,about 30 hours
"O=NN(CCCl)C(=O)NC1CCCCC1 [Lomustine, 1-(2-chloro-ethyl)-3-cyclohexyl-l nitrosourea]",radioactivity excreted in the form of degradation products within 24 hours,"[3]; oral radioactive lomustine, about 30 mg/m^2 to 100 mg/m^2",about half
same,serum half-life of the metabolites,[3]; oral radioactive lomustine,about 16 hours to about 2 days
"N[C@@H](Cc1ccc(N(CCCl)CCCl)cc1)C(=O)O [Melphalan, 4-[bis(2-chloroethyl)amino]-L-phenylalanine]",proportion of patients with a favorable response,"[4]; multiple myeloma, oral administration",about one third to one half
CO[C@@]12[C@H](COC(N)=O)C3=C(C(=O)C(C)=C(N)C3=O)N1C[C@@H]1N[C@@H]12 [Mitomycin],time required to reduce the serum concentration by about 50%,[5]; 30 mg bolus injection,17 min
same,dose excreted unchanged in the urine,[5]; in vivo,Approximately 10%
COc1cccc2c1C(=O)c1c(O)c3c(c(O)c1C2=O)C[C@@](O)([C@H](C)O)C[C@@H]3O[C@H]1C[C@H](N)[C@H](O)[C@H](C)O1 [daunorubicinol],half-life of active metabolite,[3]; in vivo,about 27 hours
CC[C@]1(O)C[C@@H]2CN(CCc3c([nH]c4ccccc34)[C@@](C(=O)OC)(c3cc4c(cc3OC)N(C)[C@H]3[C@@](O)(C(=O)OC)[C@H](OC(C)=O)[C@]5(CC)C=CCN6CC[C@]43[C@@H]65)C2)C1 [vinblastine],administered dose recovered in the feces after biliary excretion,[3]; in vivo,about 10%
same,half-life of disappearance from plasma after distribution (first),[3]; intravenous injection,approximately 1 hours
same,half-life of disappearance from plasma after distribution (second),[3]; intravenous injection,~72000 s
CC[C@]1(O)C[C@H]2CN(CCc3c([nH]c4ccccc34)[C@@](C(=O)OC)(c3cc4c(cc3OC)N(C=O)[C@H]3[C@@](O)(C(=O)OC)[C@H](OC(C)=O)[C@]5(CC)C=CCN6CC[C@]43[C@@H]65)C2)C1 [vincristine],terminal half-life (clearance from plasma),[3]; in vivo,about 24 hours
"IFN-γ: Interferon gamma, cytokine that induces iNOS",Nitrite (NO production),"ER-positive MCF-7 cells [2]; IFN-γ 25 U/ml, alone or with 4HPR 1 μM as labelled, 5 days",7.1 ± 3.3 μM Nitrite /1 × 10^6 cells
same,Nitrite (NO production),"ER-positive MCF-7 cells [2]; IFN-γ 50 U/ml, alone or with 4HPR 1 μM as labelled, 5 days",6.6 ± 0.5 μM Nitrite /1 × 10^6 cells
same,Nitrite (NO production),ER-positive MCF-7 cells [6]; IFN-γ 25 U/ml,28.3 ± 4.1 μM Nitrite /1 × 10^6 cells
same,Nitrite (NO production),ER-positive MCF-7 cells [6]; IFN-γ 50 U/ml,24.4 ± 0.4 μM Nitrite /1 × 10^6 cells
same,Cell count,ER-positive MCF-7 cells [7]; IFN-γ 25 U/ml,254 × 10^4
same,Cell count,ER-positive MCF-7 cells [7]; IFN-γ 50 U/ml,258 × 10^4
same,Cell count,ER-positive MCF-7 cells [8]; IFN-γ 25 U/ml,51 × 10^4
same,Cell count,ER-positive MCF-7 cells [8]; IFN-γ 50 U/ml,52 × 10^4
